Laboratory results as given in patent US20240225984A9, “TOPICAL COMPOSITION FOR REGULATION OF INFLAMMATION AND SKIN REGENERATION” (Glycopep Therapeutics, S.A.S. de C.V., priority 2022, published 2024).

What was measured:
[1] = test system: IL-1β; assay: IL-1β/GAPDH mRNA expression in HaCaT keratinocytes with or without DNCB; assay type: cell-based, human; conditions: without DNCB; FIG. 4
From the text: To verify that the composition of the present invention regulates the expression of genes associated with inflammation, the expression of IL-1β/GAPDH and Cox-2/GAPDH mRNA was quantified. When keratinocytes are exposed to IL-1β, they increase the levels of messenger RNA of other cytokines such as MIP-2, TNF-α, IL-10 and IL-1α. In this sense, the regulation of IL-1β is beneficial during inflammatory processes in the skin. The regulation of COX-2 is beneficial during inflammatory processes and wound regeneration.
Cells were worked between passages 3 to 7.
They were seeded in 6-well plates at a density of […] and incubated for 24 h at close to 20% confluency. After three days, 75% confluences were achieved.

[2] = test system: HaCaT cells
Description: (§1) We worked with HaCaT cells, an immortalized human keratinocyte cell line, which were cultured in DMEM medium supplemented (1 g/L glucose, 4 mM L-alanyl-glutamine, 10% inactivated fetal bovine serum, 50 IU/penicillin, 50 μg/ml streptomycin) at 37° C. and 5% CO2. Cells were worked between passages 3 to 7.
(§2) They were treated with 2.5 and 5% sialylated GMP, alone or combined with 0.5 and 1% panthenol for 0, 1, 2, 24 and 48 h. To define the percentage of viability of the cells with the different treatments at each of the times tested, cells not treated with either sialidinated GMP or panthenol were used as a control condition.
(§3) Once the time was up, cell viability was determined by measuring mitochondrial metabolic activity by spectrophotometric techniques and using tetrazolium salts.

[3] = Viability of HaCaT human keratinocytes (mitochondrial metabolic activity, tetrazolium salts / MTT); conditions: HaCaT cells (immortalized keratinocytes)
Description: as §1, §2, §3

Compound	expression level of IL-1β mRNA in relation to control cells [1]	cell viability [2]	cytotoxicity at 1 % [3]	cytotoxicity at 2 h, 0.5 % [3]
glycomacropeptide [GMP]	decreased	greater than 50%		
CC(C)(CO)[C@@H](O)C(=O)NCCCO [panthenol, Panthenol]			30%	30%
